Data from patent publication US11952351B2, “Lipid particle, composition comprising lipid particle, and method for delivering activators to cell” (KABUSHIKI KAISHA TOSHIBA, priority 2018, dated 2024).

How the values were obtained:
[1] = test system: human peripheral blood mononuclear cells PBMCs; assay: vector DNA introduced by liposomes of Table 3, NLuc enzyme activity, PBMC; assay type: cell-based; conditions: set of compound (2-01) and DOPE; 0.8 μg DNA/well, 48 hours, FIG. 5
Experimental: (§1) The amount of vector DNA introduced to cells by the liposomes was quantified on the basis of expression of NLuc genes on vector DNA. For evaluating the expression of NLuc, emission thereof was measured with a microtiter plate reader (infinite F200 [trademark], manufactured by Tecan). As the cells, human T-cell leukemia cell lines Jurkat (purchased from American Type Culture Collection) and human peripheral blood mononuclear cells PBMCs (purchased from LONZA Japan) were adopted. After 100 μL of the Jurkat cell suspension (1×10^6 cells/mL) and 100 μL of the PBMC cell suspension (5×10^6 cells/mL) were individually inoculated on a 96-well plate, 1 μL of each liposome solution shown in Table 1 was added so that the DNA amount might be 0.8 μg/well. Thereafter, the cells were incubated in an incubator at 37° C. for 48 hours under an atmosphere of 5% CO2, and then enzyme activity of NLuc was measured. The measurement of NLuc enzyme activity was carried out by use of NanoGlo Luciferase Assay System ([trademark], manufactured by Promega Corporation) with a luminometer according to the manual attached to the kit. The results are shown in FIG. 4 (Jurkat) and FIG. 5 (PBMC).

[2] = test system: human T-cell leukemia cell lines Jurkat; assay: vector DNA introduced by liposomes of Table 3, NLuc enzyme activity, Jurkat; assay type: cell-based; conditions: DOTAP as lipid forming a membrane; 0.8 μg DNA/well, 48 hours, FIG. 4
Experimental: as §1

[3] = test system: Jurkat, MCF-7 and Huh-7 cells; assay: vector DNA introduced by liposomes of Table 7, NLuc enzyme activity; assay type: cell-based, human; conditions: MCF-7, Huh-7, Jurkat; 48 hours, FIGS. 7 to 11
Experimental: The amount of vector DNA introduced to cells by the liposomes was quantified on the basis of expression of NLuc genes on vector DNA. For evaluating the expression of NLuc, emission thereof was measured with a microtiter plate reader (infinite F200 [trademark], manufactured by Tecan). As the cells, human T-cell leukemia cell lines Jurkat, human breast cancer cell lines MCF-7 and human liver cancer cell lines Huh-7 (purchased from American Type Culture Collection) were adopted. After 100 μL of the cell suspension (1×10^6 cells/mL) was inoculated on a 96-well plate, 1 μL of each liposome solution shown in Table 7 was added. Thereafter, the cells were incubated in an incubator at 37° C. for 48 hours under an atmosphere of 5% CO2, and then enzyme activity of NLuc was measured. The measurement of NLuc enzyme activity was carried out by use of NanoGlo Luciferase Assay System ([trademark], manufactured by Promega Corporation) with a luminometer according to the manual attached to the kit. FIGS. 7 to 9 show graphs in which Examples 4-1 and 4-2 are compared. […] FIGS. 10 and 11 show graphs in which Examples 4-2 and 4-3 are compared.

CCCCCC/C=C/COC(=O)CCCCCCCC(CCCCCCCC(=O)OC/C=C/CCCCCC)CN(C)CCN(C)C [compound (1-01)]
efficiency of NLuc gene expression in PBMC cells [1]: higher efficiency of NLuc gene expression in PBMC cells than the compound of the formula (1-02)

CCCCCC/C=C/COC(=O)CCCCCCCC(CCCCCCCC(=O)OC/C=C/CCCCCC)CCCCN1CCN(C)CC1 [compound (1-02)]
efficiency of NLuc gene expression in Jurkat cells [2]: higher efficiency of NLuc gene expression in Jurkat cells than the compound of the formula (1-01)

CC1=C(/C=C/C(C)=C/C=C/C(C)=C/C(=O)OCCCN(C)CCOCCOCCN(C)CCCOC(=O)/C=C(C)/C=C/C=C(C)/C=C/C2=C(C)CCCC2(C)C)C(C)(C)CCC1 [compound (2-01)]
expression efficiencies of NLuc genes (comparison in words) [3]: more easily introduced into adherent cells than into floating cells
